Laboratory results: patent US12496285B2, “Compositions and methods using at least one glycine or derivative thereof, at least one N-acetylcysteine or derivative thereof, and at least one nicotinamide riboside or NAD+ precursor” (SOCIETE DES PRODUITS NESTLE S.A., priority 2018, dated 2025)

System: mitochondrial respiration
Assay: High-resolution respirometry of isolated muscle mitochondria from adult zebrafish after menadione-induced acute oxidative stress
Type: in vivo
Settings: 3 uM menadione 2 h then 2 h treatment, low doses: NAC 100 uM + glycine 100 uM (GlyNAC) or NR 50 uM, single treatments
Experimental: FIG. 1. Effect of the combination of NAC, glycine and NR on the mitochondrial respiration. High-resolution respirometry of isolated mitochondria from muscle of adult zebrafish (N=5-6/condition). Acute oxidative stress was induced with a 2 h-treatment with menadione (Men). Rescue of the respiration was assessed with a treatment of 2 h with low doses of […] 100 uM, glycine 100 uM) and low dose of NR (50 uM). Data of respiration measurements are shown in 1A. Theoretical additive effect (Δ[…]) has been calculated as the sum of the mean of […] and NR and have been compared to the synergistic effect (Δ[…]). […] After BCA quantification of protein concentration, 150 ug of crude extract were used for high-resolution respirometry quantification. […] Respiration of isolated mitochondria was determined using substrate-uncoupler-inhibitor titration (SUIT) protocols (Pesta and […], 2012) with modifications. […] CI respiration was calculated as the difference between total respiration (CI+CII) and the addition of CI inhibitor rotenone (0.5 uM); CII respiration was calculated as the difference between inhibited CI respiration and the addition of CII inhibitor malonic acid (5 mM). Total respiration (CI+CII, Tot resp) was assessed as the difference of the respiration in presence of all substrates and the total inhibition of CI and CII. All numerical data are expressed as mean±SEM and reported as histograms. […]

In the case of NC(=O)c1ccc[n+]([C@@H]2O[C@H](CO)[C@@H](O)[C@H]2O)c1 [NR, nicotinamide riboside], the “effect on mitochondrial respiration when used alone” value is reported as “do not show any significant effect when used alone”.
